In brackets after ≈: the same amount, converted by molar mass. Blank lines part the entries; values can stand above or below the molecule they belong to.
What was measured:
Phytophthora nicotianae = assay: Antifungal activity against Phytophthora nicotianae assessed a fungal growth inhibition measured after 4 to 8 days; assay type: functional, organism-based
Rhizoctonia solani = assay: Antifungal activity Rhizoctonia solani assessed as fungal growth inhibition measured after 4 to 8 days; assay type: functional, organism-based
[1] = Antiproliferative activity against mouse […] cells assessed as inhibition of cell growth incubated for 48 hrs by MTT assay; assay type: functional, cell-based
A549 = assay: Antiproliferative activity against human A549 cells assessed as reduction in cell viability incubated for 48 hrs by SRB assay; assay type: functional, cell-based; conditions: A549, 48 h
H322 = assay: Antiproliferative activity against human H322 cells assessed as reduction in cell viability incubated for 48 hrs by SRB assay; assay type: functional, cell-based; conditions: NCI-H322, 48 h
SW 1116 = assay: Antiproliferative activity against human SW 1116 cells assessed as reduction in cell growth incubated for 48 hrs by MTT assay; assay type: functional, cell-based; conditions: SW 1116, 48 h
[2] = target: Telomerase reverse transcriptase (Homo sapiens, UniProt O14746); assay: Inhibition of telomerase (unknown origin)
A-375 = assay: Cytotoxicity against human A-375 cells assessed as reduction in cell growth measured after 24 hrs by MTT assay; assay type: functional, cell-based; conditions: A-375, 24 h
HT-29 = assay: Antiproliferative activity against human HT-29 cells assessed as reduction in cell viability incubated for 24 hrs by MTT assay; assay type: functional, cell-based; conditions: HT-29, 24 h
A2780 = assay: Antiproliferative activity against human A2780 cells assessed as reduction in cell growth incubated for 72 hrs by MTT assay; assay type: functional, cell-based; conditions: A2780, 72 h
FaDu = assay: Antiproliferative activity against human FaDu cells assessed as inhibition of cell growth incubated for 72 hrs by 3H-thymidine incorporation assay; assay type: functional, cell-based
MCF7 = assay: Antiproliferative activity against human MCF7 cells assessed as inhibition of cell growth at 10 uM incubated for 48 hrs by SRB assay relative to control; assay type: functional; parameters: scale not given: the % may be the effect or the level left
PC-3 [3] = assay: Antiproliferative activity against human PC-3 cells assessed as reduction in cell viability incubated for 24 hrs by MTT assay; assay type: functional, cell-based; conditions: PC-3, 24 h
HeLa = assay: Antiproliferative activity against human HeLa cells assessed as reduction in cell viability incubated for 24 hrs by MTT assay; assay type: functional, cell-based
HCT-116 = assay: Antiproliferative activity against human HCT-116 cells assessed reduction in cell growth incubated for 24 hrs by MTT assay; assay type: functional, cell-based; conditions: HCT-116, 24 h
Cholinesterase = Cholinesterase (Homo sapiens, UniProt P06276); assay: Inhibition of BchE (unknown origin)
Acetylcholinesterase = Acetylcholinesterase (Homo sapiens, UniProt P22303); assay: Inhibition of AChE (unknown origin)
Histone deacetylase 1 = Histone deacetylase 1 (Homo sapiens, UniProt Q13547); assay: Inhibition of human recombinant HDAC1
Histone deacetylase 3 = Histone deacetylase 3 (Homo sapiens, UniProt O15379); assay: Inhibition of human recombinant HDAC3
Histone deacetylase 2 = Histone deacetylase 2 (Homo sapiens, UniProt Q92769); assay: Inhibition of human recombinant HDAC2
PC-3 [4] = assay: Antiproliferative activity against human PC-3 cells assessed as reduction in cell viability incubated for 48 hrs by CCK-8 assay; assay type: functional, cell-based; conditions: PC-3, 48 h
[5] = Antiproliferative activity against human THLE-2 cells assessed as reduction in cell viability incubated for 48 hrs by CCK-8 assay; assay type: toxicity, cell-based
[6] = Selectivity index, ratio of IC50 for antiproliferative activity against human THLE-2 cells to IC50 for antiproliferative activity against human PC-3 cells
MG-63 = assay: Cytotoxicity against human MG-63 cells assessed as reduction in cell viability incubated for 48 hrs by MTT assay; assay type: functional, cell-based; conditions: MG-63, 48 h
U2OS = assay: Cytotoxicity against human U2OS cells assessed as reduction in cell viability incubated for 48 hrs by MTT assay; assay type: functional, cell-based
SAOS-2 = assay: Cytotoxicity against human SAOS-2 cells assessed as reduction in cell viability incubated for 48 hrs by MTT assay; assay type: functional, cell-based; conditions: SAOS-2, 48 h
BGC-823 = assay: Cytotoxicity against human BGC-823 cells assessed as reduction in cell viability incubated for 24 hrs by MTT assay; assay type: functional, cell-based; conditions: BGC-823, 24 h

Acetylcholinesterase, sequence (P22303 whole entry): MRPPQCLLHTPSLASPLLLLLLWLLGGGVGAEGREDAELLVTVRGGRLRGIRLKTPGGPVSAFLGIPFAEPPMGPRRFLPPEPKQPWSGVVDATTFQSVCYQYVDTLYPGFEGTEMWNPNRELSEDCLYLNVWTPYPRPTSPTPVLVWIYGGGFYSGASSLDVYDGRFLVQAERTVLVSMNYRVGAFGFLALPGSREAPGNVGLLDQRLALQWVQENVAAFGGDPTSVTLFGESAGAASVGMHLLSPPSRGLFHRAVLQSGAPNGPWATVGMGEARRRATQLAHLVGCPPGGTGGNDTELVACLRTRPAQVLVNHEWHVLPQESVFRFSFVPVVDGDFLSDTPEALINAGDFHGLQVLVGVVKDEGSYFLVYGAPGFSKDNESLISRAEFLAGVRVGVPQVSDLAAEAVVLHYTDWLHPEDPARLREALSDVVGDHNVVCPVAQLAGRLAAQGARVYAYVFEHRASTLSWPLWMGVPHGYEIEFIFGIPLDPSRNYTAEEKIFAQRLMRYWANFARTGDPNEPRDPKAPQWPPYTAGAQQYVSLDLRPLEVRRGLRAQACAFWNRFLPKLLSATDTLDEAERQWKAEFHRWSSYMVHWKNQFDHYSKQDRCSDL
Cholinesterase, sequence (P06276 whole entry): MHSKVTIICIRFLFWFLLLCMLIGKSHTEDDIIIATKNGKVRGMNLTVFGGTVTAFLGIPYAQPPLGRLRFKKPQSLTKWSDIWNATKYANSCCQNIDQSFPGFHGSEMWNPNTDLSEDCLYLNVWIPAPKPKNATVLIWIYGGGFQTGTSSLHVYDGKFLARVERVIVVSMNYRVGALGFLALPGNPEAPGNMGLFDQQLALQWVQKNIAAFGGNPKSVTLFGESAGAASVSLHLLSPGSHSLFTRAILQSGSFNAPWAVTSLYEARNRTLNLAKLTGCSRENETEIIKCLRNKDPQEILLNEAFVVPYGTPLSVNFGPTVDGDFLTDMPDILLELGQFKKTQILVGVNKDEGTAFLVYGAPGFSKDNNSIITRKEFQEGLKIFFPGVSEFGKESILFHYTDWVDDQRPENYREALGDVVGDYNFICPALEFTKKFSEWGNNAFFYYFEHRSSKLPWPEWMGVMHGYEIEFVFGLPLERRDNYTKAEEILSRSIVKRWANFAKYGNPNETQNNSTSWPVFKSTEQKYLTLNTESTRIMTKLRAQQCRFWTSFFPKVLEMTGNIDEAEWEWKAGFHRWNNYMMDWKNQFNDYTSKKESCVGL
Histone deacetylase 1, sequence (Q13547 whole entry): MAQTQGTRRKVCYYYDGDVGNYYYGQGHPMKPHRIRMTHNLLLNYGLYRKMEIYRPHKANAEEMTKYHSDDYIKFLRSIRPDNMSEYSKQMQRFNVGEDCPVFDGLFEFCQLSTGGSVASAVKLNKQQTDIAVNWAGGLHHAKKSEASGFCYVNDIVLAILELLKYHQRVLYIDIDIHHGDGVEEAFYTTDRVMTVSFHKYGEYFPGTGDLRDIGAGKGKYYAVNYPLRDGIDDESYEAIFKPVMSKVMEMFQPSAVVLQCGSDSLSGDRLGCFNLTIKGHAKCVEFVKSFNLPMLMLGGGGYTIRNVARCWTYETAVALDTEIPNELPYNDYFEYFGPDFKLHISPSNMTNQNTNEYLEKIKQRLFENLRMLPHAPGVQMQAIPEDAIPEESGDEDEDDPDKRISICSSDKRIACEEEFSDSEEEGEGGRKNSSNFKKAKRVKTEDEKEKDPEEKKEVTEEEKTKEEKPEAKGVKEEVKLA
Telomerase reverse transcriptase, sequence (O14746 whole entry): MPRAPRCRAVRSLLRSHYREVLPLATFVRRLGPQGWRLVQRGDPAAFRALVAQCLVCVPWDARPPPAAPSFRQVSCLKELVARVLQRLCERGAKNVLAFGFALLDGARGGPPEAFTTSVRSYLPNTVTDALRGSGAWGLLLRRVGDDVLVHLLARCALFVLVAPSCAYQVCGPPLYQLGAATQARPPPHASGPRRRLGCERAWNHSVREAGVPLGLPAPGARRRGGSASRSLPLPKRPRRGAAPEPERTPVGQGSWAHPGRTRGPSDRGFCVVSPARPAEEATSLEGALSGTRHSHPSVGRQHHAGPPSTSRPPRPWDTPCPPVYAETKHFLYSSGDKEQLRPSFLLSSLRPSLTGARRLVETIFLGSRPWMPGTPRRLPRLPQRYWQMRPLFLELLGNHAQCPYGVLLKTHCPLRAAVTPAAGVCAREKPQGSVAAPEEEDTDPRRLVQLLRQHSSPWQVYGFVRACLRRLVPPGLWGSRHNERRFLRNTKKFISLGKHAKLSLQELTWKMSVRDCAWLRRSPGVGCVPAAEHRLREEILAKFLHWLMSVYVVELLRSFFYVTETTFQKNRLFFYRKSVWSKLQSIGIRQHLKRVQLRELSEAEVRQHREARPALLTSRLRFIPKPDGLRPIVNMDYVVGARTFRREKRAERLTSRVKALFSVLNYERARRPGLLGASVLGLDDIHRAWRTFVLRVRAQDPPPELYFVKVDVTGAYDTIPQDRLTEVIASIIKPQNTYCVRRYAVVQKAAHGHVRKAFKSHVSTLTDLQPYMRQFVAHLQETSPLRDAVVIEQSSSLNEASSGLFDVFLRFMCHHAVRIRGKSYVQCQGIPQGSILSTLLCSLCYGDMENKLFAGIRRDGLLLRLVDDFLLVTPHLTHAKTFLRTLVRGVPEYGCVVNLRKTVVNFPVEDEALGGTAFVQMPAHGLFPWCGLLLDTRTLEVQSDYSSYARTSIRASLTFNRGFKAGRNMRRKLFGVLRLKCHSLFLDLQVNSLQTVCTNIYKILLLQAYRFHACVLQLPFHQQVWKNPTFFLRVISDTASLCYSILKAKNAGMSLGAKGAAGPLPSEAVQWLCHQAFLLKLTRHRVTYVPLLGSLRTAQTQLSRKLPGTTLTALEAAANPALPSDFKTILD
Histone deacetylase 2, sequence (Q92769 whole entry): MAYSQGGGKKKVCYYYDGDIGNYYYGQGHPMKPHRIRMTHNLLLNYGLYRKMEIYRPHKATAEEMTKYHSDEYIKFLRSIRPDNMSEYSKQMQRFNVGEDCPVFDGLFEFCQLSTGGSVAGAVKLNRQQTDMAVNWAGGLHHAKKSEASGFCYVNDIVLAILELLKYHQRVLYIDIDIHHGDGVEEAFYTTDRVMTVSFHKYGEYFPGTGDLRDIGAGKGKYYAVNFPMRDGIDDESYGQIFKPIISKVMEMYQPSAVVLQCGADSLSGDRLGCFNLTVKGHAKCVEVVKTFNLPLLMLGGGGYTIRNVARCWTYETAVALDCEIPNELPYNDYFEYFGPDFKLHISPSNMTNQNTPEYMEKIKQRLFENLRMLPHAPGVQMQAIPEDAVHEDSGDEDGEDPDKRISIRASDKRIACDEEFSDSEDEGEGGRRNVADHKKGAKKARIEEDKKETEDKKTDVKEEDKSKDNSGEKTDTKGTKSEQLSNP
Histone deacetylase 3, sequence (O15379 whole entry): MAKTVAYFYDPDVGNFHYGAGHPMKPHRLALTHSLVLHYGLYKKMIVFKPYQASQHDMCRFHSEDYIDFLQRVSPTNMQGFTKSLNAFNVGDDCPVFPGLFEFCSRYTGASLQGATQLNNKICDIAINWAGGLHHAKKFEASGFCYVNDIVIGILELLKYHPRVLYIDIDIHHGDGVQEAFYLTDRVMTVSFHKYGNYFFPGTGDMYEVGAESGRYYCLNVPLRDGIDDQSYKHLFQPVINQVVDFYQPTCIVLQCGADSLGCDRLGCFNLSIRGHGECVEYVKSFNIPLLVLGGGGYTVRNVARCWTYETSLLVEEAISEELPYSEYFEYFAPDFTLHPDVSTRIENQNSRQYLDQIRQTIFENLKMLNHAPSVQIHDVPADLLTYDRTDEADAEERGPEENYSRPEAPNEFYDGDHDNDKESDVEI

SMILES: CC(OC(=O)c1ccccc1)c1cnccn1 (stereo unspecified)
EC50 (Phytophthora nicotianae): 0.187 µg/mL (≈ 0.819 µM) | EC50 (Rhizoctonia solani): 0.019 µg/mL (≈ 0.0832 µM)

SMILES: Cc1cnc(COC(=O)c2ccccc2)cn1
EC50 (Rhizoctonia solani): 0.021 µg/mL (≈ 0.092 µM)

SMILES: C[C@@H]1[C@@]2(CC[C@](C)(O)CO2)O[C@H]2C=C3[C@@H]4[C@@H](O)C[C@H]5Cc6nc7c(nc6C[C@]5(C)[C@H]4C[C@@H](O)[C@]3(C)[C@]21O)C[C@@H]1CC[C@@H]2[C@H](CC(=O)[C@]23C[C@@H]2O[C@]4(CCC(C)(C)O4)[C@@H](C)[C@@H]2[C@]3(C)O)[C@@]1(C)C7 [RITTERAZINE D]
EC50 ([1]; time 48 hrs, read-out: ED50 (the source's name)): 0.00017 µM

IC50 (A549): 49.7 µM | IC50 (H322): 50.6 µM
SMILES: CCn1c(-c2ccc(OC)cc2)cn2nc(-c3ccc(OC)cc3)cc2c1=O

IC50 [2]: 15 µM
SMILES: Fc1ccc(CSc2nnc(-c3cnccn3)n2-c2ccccc2)cc1
IC50 (SW 1116): 4.12 µM

IC50 (HT-29): 22.7 µM | IC50 (A2780): 15.7 µM
SMILES: CC1c2nccnc2C[C@]2(C)[C@H]3C(=O)C=C4[C@@H]5[C@@H](C)[C@H](C)CC[C@]5(C)CC[C@@]4(C)[C@]3(C)CC[C@@H]12 (stereo partly specified)
IC50 (A-375): 12 µM | IC50 (FaDu): > 30 µM

SMILES: O=C1c2cc3ccccc3n2C(=O)C2Cc3ccncc3N12 (stereo unspecified)
Activity (MCF7): 50.6%

IC50 (PC-3 [3]): 0.18 µM | IC50 (HT-29): 0.06 µM | IC50 (HeLa): 0.09 µM
SMILES: CN(CCCN(C)CCN1C(=O)c2cccc3c(N)c(N)cc(c23)C1=O)CCN1C(=O)c2cccc3c(N)c(N)cc(c23)C1=O

IC50 (HCT-116): 0.084 µM
SMILES: C[C@@H]1[C@]2(O[C@H]3C=C4[C@@H]5CC[C@H]6Cc7nc8c(nc7C[C@]6(C)[C@H]5C[C@@H](O)[C@]4(C)[C@]31O)C[C@@H]1CC[C@H]3C4=CC5O[C@@]6(CCC(C)(C)O6)[C@@H](C)[C@@H]5[C@@]4(C)[C@H](O)C[C@@H]3[C@@]1(C)C8)O[C@](C)(COC(=O)CNC(=O)Cc1cc(=O)oc3cc(N(C)C)ccc13)C[C@H]2O (stereo partly specified)

SMILES: O=[N+]([O-])c1cccc(-c2cnc3cccnc3n2)c1
IC50 (Cholinesterase): 1.89 µM | IC50 (Acetylcholinesterase): 0.466 µM

IC50 (Histone deacetylase 1): 0.26 µM | IC50 (Histone deacetylase 3): 1 µM | IC50 (Histone deacetylase 2): 2.47 µM
SMILES: Cn1cc(CCN2CCN(c3cnc(C(=O)Nc4cc(-c5cccs5)ccc4[N+](=O)[O-])cn3)CC2)c2ccccc21

IC50 (PC-3 [4]): 0.93 µM
SMILES: C[C@H](O)[C@@]1(C)CCC2[C@]3(C)CC=C4C(C)(C)c5nc(C(=O)NCCc6ccccc6)cnc5C[C@]4(C)[C@H]3CC[C@@]21C (stereo partly specified)
IC50 at 48 h [5]: 26.7 µM | Ratio IC50 [6]: 28.71

SMILES: Fc1cccc(-c2cnc3cccnc3n2)c1
IC50 (Cholinesterase): 0.583 µM | IC50 (Acetylcholinesterase): 0.8 µM

SMILES: CCn1nc(C2CCN(C(=O)CCO)CC2)nc1-c1cnc(N)c(-c2nnc(C(C)(C)C)o2)n1 [AZD-8835]
IC50 ([1]; 48 h): 0.93 µM

SMILES: Cc1nc(C)c(C)nc1C [LIGUSTRAZINE]
IC50 (MG-63): 10.3 µg/mL (≈ 75.6 µM) | IC50 (U2OS): 54.7 µg/mL (≈ 402 µM) | IC50 (SAOS-2): 24.7 µg/mL (≈ 181 µM)

SMILES: CC(C)(O)CCC[C@](C)(O)C1CC[C@]2(C)[C@@H]1[C@H](O)C[C@@H]1[C@@]3(C)Cc4nccnc4C(C)(C)[C@@H]3CC[C@]12C (stereo partly specified)
IC50 (BGC-823): 11.5 µM

IC50 (HT-29): 12.2 µM | IC50 (A2780): 13.7 µM
SMILES: C[C@H]1[C@H](C)CC[C@]2(C)CC[C@]3(C)C(=CC(=O)[C@@H]4[C@@]5(C)Cc6nccnc6[C@](C)(C(=O)OCc6ccccc6)[C@@H]5CC[C@]43C)[C@H]12
IC50 (A-375): 2.1 µM | IC50 (FaDu): > 30 µM

From ChEMBL document CHEMBL5625161, “Pharmacological activity and mechanism of pyrazines” (Eur J Med Chem, 2023)
